Reference: patent US5028626A, “Peptides with pharmaceutical activity” (Zambon Group S.p.A., priority 1988, dated 1991)
Counter-ions that a name gives are not always drawn.

Legend:
[1] = target: T1, purified aminopeptidase obtained from hog kidney (leucineaminopeptidase) (Sus scrofa, UniProt P28839); test: Inhibitory effect on leucineaminopeptidase activity (L-leucinamide hydrolysis, absorbance at 238 nm); format: biochemical; conditions: leucineamide 50 mM, tris-HCl pH 8.5, MgCl2 5 mM, 25° C., read-out: IC50 (concentration of the compound inducing a 50% decrease of the enzymatic activity)
T1 construct: a purified aminopeptidase obtained from hog kidney; purchased Baehringer (so in the source); host or cells: hog kidney tissue
T1 sequence (P28839 1-519): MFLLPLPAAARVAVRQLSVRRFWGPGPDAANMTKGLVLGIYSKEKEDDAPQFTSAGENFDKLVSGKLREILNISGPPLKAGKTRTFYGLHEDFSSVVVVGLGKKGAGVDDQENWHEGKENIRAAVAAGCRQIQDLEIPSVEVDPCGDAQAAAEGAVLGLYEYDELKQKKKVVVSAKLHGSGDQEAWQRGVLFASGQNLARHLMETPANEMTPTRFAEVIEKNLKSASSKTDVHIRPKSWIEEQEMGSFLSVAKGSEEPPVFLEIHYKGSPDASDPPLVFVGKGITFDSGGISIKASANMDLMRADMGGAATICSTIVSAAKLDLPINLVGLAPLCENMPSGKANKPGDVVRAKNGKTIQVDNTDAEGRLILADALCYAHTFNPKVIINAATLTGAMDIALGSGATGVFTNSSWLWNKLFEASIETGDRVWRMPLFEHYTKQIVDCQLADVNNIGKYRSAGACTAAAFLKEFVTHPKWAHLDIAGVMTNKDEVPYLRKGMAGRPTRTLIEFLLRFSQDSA
Description: (§1) The activity of the compounds of formula I has been evaluated as inhibitory effect on the activity of leucineaminopeptidase and as stimulating effect on the mitogenetic activity of mouse splenic lymphocytes.
The inhibitory effect of the tested compounds has been evaluated on a purified aminopeptidase obtained from hog kidney (Baehringer, 100U/mg).
The enzymatic activity was estimated spectrophotometrically by using L-leucinamide as substrate and by measuring the hydrolysis of the peptide bond as decrease of absorbance at 238 nm.
The enzyme was activated prior to assay at 37° C. for 2 hours, in the presence of MgCl2 1 mM and tris-HCl buffer 20 mM pH 8.5 in a total volume of 2.5 ml.
The enzymatic reaction was followed at 238 nm for at least 30 minutes at 25° C. in 2.5 ml of an incubation medium containing 50 μg of enzyme, leucineamide 50 mM, tris-HCl buffer 20 mM pH 8.5 and MgCl2 5 mM in the absence or in the presence of increasing concentrations of the tested compound.
The inhibitory effect was expressed as the concentration of the compound inducing a 50% decrease of the enzymatic activity (IC50, nmoles/1).

[2] = test system: mouse splenic lymphocytes; test: Immunostimulating (mitogenetic) activity: 3H-timidine incorporation in mouse splenic lymphocytes; format: cell-based, mouse (C3H/H2); conditions: compound at 1 μM; 48 h + 24 h incubation with 3H-TMD
Protocol: as §1
The immunostimulating activity has been evaluated as ability to stimulate the incorporation of ^3 H-timidine (^3 H-TMD) in a culture of mouse splenic lymphocytes.
The splenic cells were drawn form C3H/H2 mice (age: 6-8 weeks) and suspended in RPMI-1640 medium containing HEPES 20 mM and 10% bovine fetal serum (inactivated to heat) at the concentration of 5×10^6 cells/ml.
Cells were sowed of Microtest plates (Falcon 3072) in the absence and in the presence of different concentrations of the compounds of formula I in a volume of 0.2 ml of medium.
After an incubation period of 48 hours at 37° C. in humidified environment at 5% CO2 /O2, 0.5 microCi of ^3 H-TMD (specific activity 2 Ci/mmoles) were added and the incubation was protracted for further 24 hours.
Cells were collected by filtration (Tretertek Cell Harnester) and the incorporated radioactivity was measured by Packard TRI-CARB 4530 scintillator.
The mitogenetic effect was expressed as percentage increase in the incorporation of ^3 H-TMD in lymphocytes incubated with the compounds of formula I at the concentration of 1 μM with respect to the basal incorporation value.

| Structure (SMILES) | IC50 [1] | percentage increase in the incorporation of 3H-TMD in lymphocytes with respect to the basal incorporation value [2] |
| --- | --- | --- |
| CC(C)C[C@H](NC(=O)[C@@H](O)[C@H](N)Cc1ccc(S(C)(=O)=O)cc1)C(=O)O [Example 3, N-[(2S,3R)-3-amino-2-hydroxy-4-(4-methylsulfonylphenyl)-butanoyl]-L-leucine] | 10 nM |  |
| CC(C)C[C@H](NC(=O)[C@H](O)[C@@H](N)Cc1ccc(S(C)(=O)=O)cc1)C(=O)O [Example 4, N-[(2R,3S)-3-amino-2-hydroxy-4-(4-methylsulfonylphenyl)-butanoyl]-L-leucine] |  | 109% |
| CSc1ccc(C[C@@H](N)[C@H](O)C(=O)N[C@@H](CC(C)C)C(=O)O)cc1 [Example 11, N-[(2S,3R)-3-amino-2-hydroxy-4-(4-methylthiophenyl)-butanoyl]-L-leucine hydrobromide] | 11 nM |  |
